Experimental findings from patent US20240390396A1 (priority 2021, published 2024) are described below.

Several values for one entry are separate records, joined by “and”; a condition that tells them apart may be missing. Equal values may be shown once. Read-outs that look alike come from different tables or passages of the source.

Data set [1] relates to RAW 264.7 macrophages. Put plainly: Nitric oxide (NO) secretion by LPS-activated macrophages (Griess reagent). It is filed as cell-based. To be noted: for effect of ECS receptor antagonists alone on NO secretion: 24 h (FIG. 5B). Here is the method:
NO secretion was determined by measuring the amount of nitrite, using a Griess reagent (Promega) according to manufacturer's protocol. Briefly, 50 μl of supernatant was added to 96-well plate, followed by 50 μl sulphanilamide and 50 μl N−1-napthylethylenediamine dihydrochloride (NED). The optical densities were quantified using a multi-well spectrophotometer, and nitrite concentrations were estimated using a standard nitrite curve. Results were calculated as the percentage of control cultures.
The poor bioavailability of CBD may hamper its effectiveness as an anti-inflammatory drug. To test whether antagonists of the ECS may potentiate the anti-inflammatory effect of CBD, the inventors used the RAW 264.7 macrophages as a model system for inflammation. Exposure of cells to bacterial lipopolysaccharide (LPS) initiates a signal transduction cascade that leads to increased production of nitrite oxide (NO), secretion of pro-inflammatory cytokines, and acquisition of enhanced bactericidal activity.
First, the inventors studied the response of LPS-activated RAW 264.7 cells to CBD. Cells were cultured with LPS, with/without CBD at 0.63-5 μM concentrations for 24 hrs. Supernatants were harvested for measuring NO by spectrophotometry using the Greiss reagent. […] To test whether antagonists of the ECS can modify the anti-inflammatory activity of CBD, the inventors further exposed the cells to LPS, CBD, ECS antagonists (detailed in Table 2), and their combinations. Two distinct CB2 antagonists (AM630 and COR170) were tested, as CB2 is known to be involved in the regulation of inflammation.

Data set [2] deals with MDA-MB-231 cells. The following applies: 24 h.
The test system of data set [3] is MDA-MB-468 cells. It is filed as cell-based. To be noted: 24 h; 1:2 dilution of the original doses: cannabis containing 2 μM CBD; 16 μM capsazepine; capsaicin and thapsigargin diluted 1:2 from 400 μM and 5 μM; alone or combined.
Data set [4] relates to T47D cells. Format: cell-based. To be noted: 24 h; cannabis containing 4 μM CBD; 32 μM capsazepine; 400 μM capsaicin; 5 μM thapsigargin; alone or combined.
Data set [5] relates to MCF7 cells. Format: cell-based. The following applies: 24 h; cannabis containing 4 μM CBD; 32 μM capsazepine; 400 μM capsaicin; 5 μM thapsigargin; alone or combined.
The mark [6] stands for this setting: cannabis containing 4 μM CBD, 400 μM capsaicin, 5 μM thapsigargin, alone or combined.

In the case of `C=C(C)[C@@H]1CCC(C)=C[C@H]1c1c(O)cc(CCCCC)cc1O` [CBD, cannabidiol], the “NO secretion, dose response” value in data set [1] (24 h, CBD 0.63-5 μM (FIG. 5A)) is “reduced NO secretion in a dose dependent manner”. Also, the activity at 2.5 µM in data set [1] (Mus musculus, RAW264.7, 24 h, 2.5 μM CBD, with or without 10 μM capsazepine, read-out: NO secretion, % of control cells treated with vehicle (DMSO)) stood at 6 ± 5%. The same compound had a cell survival in data set [2] (2.5 μM pure CBD, with or without 32 μM capsazepine (FIG. 1D)) of 72±13%.
For `CCC(=O)NC[C@H](Cc1ccc(OCCc2nc(-c3ccccc3)oc2C)cc1)N/C(C)=C\C(=O)c1ccc(C(F)(F)F)cc1` [GW6471], the “effect of ECS receptor antagonists alone on NO secretion” value in data set [1] is listed as “mild effect on NO secretion”.
With `COc1cc(CNC(=O)CCCC/C=C/C(C)C)ccc1O` [capsaicin], the cell survival in data set [3] was 60±11% and 62±9%; in data set [2] (setting [6]), 34±25%; in data set [4] it was 39±11%; in data set [5] it was 19±9%.
As to `Oc1cc2c(cc1O)CN(C(=S)NCCc1ccc(Cl)cc1)CCC2` [capsazepine], the figures for the cell survival in data set [3], in data set [4] and in data set [5] were 80±9%, 37±21% and 40±7%, respectively. Also, in data set [1], the “effect of ECS receptor antagonists alone on NO secretion” value was “mild effect on NO secretion”. Moreover, the “effect of ECS receptor antagonist on cytotoxic activity of cannabis” value in data set [2] (co-treatment with CBD-enriched cannabis (FIG. 1B)) is recorded as “enhanced the cytotoxic effect of cannabis”.
As for `C/C=C(/C)C(=O)O[C@H]1C(C)=C2[C@H]([C@@H]1OC(=O)CCCCCCC)[C@@](C)(OC(C)=O)C[C@H](OC(=O)CCC)[C@@]1(O)[C@H]2OC(=O)[C@@]1(C)O` [thapsigargin], the cell survival in data set [2] (setting [6]) was 34±23%; in data set [4], 72±7%; in data set [5] it was 24±6%.
